From patent US10409869B2, “(R)- and (S)-1-(3-(3-N,N-dimethylaminocarbonyl)phenoxyl-4-nitrophenyl)-1-ethyl-N,N'-bis (ethylene)phosphoramidate, compositions and methods for their use and preparation” (OBI Pharma, Inc., priority 2015, dated 2019)

Legend:
[1] = test system: HepG2-GFP human hepatocellular carcinoma; test: Orthotopic HepG2-GFP human hepatocellular carcinoma mouse model, tumor burden; assay type: in vivo, nude mice; details: at tested dosages
Description: Female athymic nude mice (6 weeks of age) were used in this study. The animals were purchased from Beijing HFK Bioscience, Co., Ltd and maintained in a High Efficiency Particulate Air Filter (HEPA) filtered environment with cages, food, and bedding sterilized by irradiation or autoclaving. A total of 32 nude mice were used for the study. HepG2-GFP human hepatocellular carcinoma cells (AntiCancer, Inc., San Diego, Calif.) were incubated with RPMI-1640 (Gibco-BRL, Life Technologies, Inc.), which contained 10% FBS. Cells were grown in a CO2 Water Jacketed Incubator (Forma Scientific) maintaining 37° C. and a 5% CO2/95% air atmosphere. Cell viability was determined by trypan blue exclusion analysis. Five female athymic nude mice were injected subcutaneously with a single dose of 5×10^6 HepG2-GFP cells. Tumors were harvested when their size reached 1 cm^3 and the tumor tissues were then cut into small fragments of 1 mm^3. Forty female nude mice were implanted orthotopically with a single piece of tumor fragment, which was derived from a subcutaneous tumor model of HepG2-GFP human hepatocellular carcinoma. The tumor tissue was orthotopically implanted in the right lobe of the liver in each mouse by SOI (Surgical Orthotopic Implantation). […]
During the period of the study, all of the experimental mice were checked daily for mortality or signs of morbidity. […] The body weights of the mice were measured twice weekly during the study period. […] Comparisons of body weights and tumor burdens in different groups were analyzed using the Student's t-test with an α=0.05 (two-sided). […]
The progressions of orthotopic HepG2-GFP hepatocellular carcinoma in different groups were monitored by real time imaging. […] Typical tumor images at the end of the study in each group and tumor growth curves derived from the signals of tumor fluorescence, which were analyzed using the Power Station software (INDEC Biosystems, CA, USA), are shown in FIG. 6 and FIG. 7, respectively
Tumor IR was calculated based on the final average tumor weights according to the formula: IR (%)=(1−treatment(t)/control(c))×100

[2] = Body weight and toxicity in the orthotopic HepG2-GFP mouse model; assay type: in vivo, nude mice; details: intra-peritoneal, low (2.5 mg/kg) or high (5 mg/kg) dose
[3] = test system: AL7473 cells; test: T-cell leukemia animal model, human CD45 FACS; assay type: in vivo, mouse
Description: Leukemic cells were prepared by thawing out ˜150×10^6 of AL7473 cells from LN2 (about 2-3 vials) and placing them into a 37° C. water bath rapidly. All of the cells were transferred into a 50 ml falcon tube with 40 ml pre-warmed complete medium. The cells were centrifuged at 1200 rpm for 5 min. The cells were re-suspended with 40 ml RPMI1640. The cells were then counted. The cells were centrifuged at 1200 rpm for 5 min. and re-suspended with ice cold PBS to 2 million cell per 100 ul PBS. 100 ul of saline containing 2×10^6 cells prepared above were used to inject into each mouse by IV. The FACS analysis was done for blood weekly during the experimental period by transferring samples into FACS tubes, adding human CD45 FITC and isotypes into corresponding tubes for all the samples and incubating the cells on ice for 30 min. in the dark. 2 ml of red blood cell lysing buffer was added to each tube and incubated on ice for another 30 min. in the dark. […] Samples were analyzed on a BD Calibur by using Cell Quest or Flowjo and the results were analyzed by using Prism 5.0. […]
Peripheral blood was collected weekly for human CD45 antibody FACS detected during treatment since the treatment start on Day 43 post cell inoculation. […] Blood, spleen and bone marrow of all mice were collected for human CD45 FACS detected. […]

For `C[C@H](OP(=O)(N1CC1)N1CC1)c1ccc([N+](=O)[O-])c(Oc2cccc(C(=O)N(C)C)c2)c1` (single isomer, unassigned) [TH3424], the “inhibitory effect on orthotopic HepG2-GFP model” value [1] was “very strong inhibitory effect”, the “toxicity to the experimental mice” value [2] was “no obvious toxicity” and the “toxicity to the experimental mice” value ([2]; listed as TH2870-2) was “no obvious acute toxicity”. The “percentages of human CD45+ leukemia cells in peripheral blood” value ([3]; after the second dosing, treatment groups 2-4 vs vehicle group 1, P<0.001) was “significantly lower than vehicle group” and the “tumor burden (human CD45) in blood, spleen and bone marrow at termination” value ([3]; groups 2-4 vs group1, P<0.01, bone marrow in group2 P<0.05) was “significant differences”.
